From patent US7700584B2 (Hangzhou Minsheng Pharmaceuticals Co., Ltd., priority 2004, dated 2010)
Values after ≈ are worked out from the molar mass of the structure shown. Counter-ions that a name gives are not always drawn.

Tests used:
[1] = tested on: A-549 human lung adenocarcinoma; assay: In vitro anti-tumor IC50 (MTT), A-549; format: cell-based
Method: (§1) (1) Single cell suspension was seeded into 96-well plates (the cells was diluted in the PRMI-1640 minimum medium to 3×10^4 cells/ml, […] diluted cells/well). […] The experiments were performed in quadruplicate.
(§2) (2) The medium was removed. Solutions of the anti-tumor agents (50 compounds) were prepared in a freshly prepared medium at serial concentrations. […] of the solution was added into each well. Incubation was continued for 48 hours.
(§3) (3) 20 ug of 2 mg/ml MTT was added into each well, and incubated for 4 hours.
(§4) (4) The medium was removed from the well. The microplates were swiftly turned down to throw-off the medium. […] of DMSO was added into each well, and vortexed at room temperature for 10 minutes.
(§5) (5) OD value (λ=570 nm) was measured with an Enzyme-Linked Detector.
(§6) (6) The graph of cell vitality was plotted, and IC50 was calculated.

[2] = tested on: Bel-7402 human hepatic carcinoma; assay: In vitro anti-tumor IC50 (MTT), Bel-7402; format: cell-based
Method: as §1, §2, §3, §4, §5, §6

[3] = tested on: LLC mouse Lewis lung carcinoma; assay: In vitro anti-tumor IC50 (MTT), LLC; format: cell-based; conditions: Table 4
Method: as §1, §2, §3, §4, §5, §6

[4] = tested on: SMMC-7721 human hepatic carcinoma; assay: In vitro anti-tumor IC50 (MTT), SMMC-7721; format: cell-based
Method: as §1, §2, §3, §4, §5, §6

[5] = tested on: eight selected tumor cell lines; assay: In vitro anti-tumor IC50, summary over the selected tumor cell lines; format: cell-based; conditions: all eight cell lines
Method: as §1, §2, §3, §4, §5, §6

[6] = tested on: mouse grafted uterine cervix cancer U14; assay: Activity against mouse grafted uterine cervix cancer U14; format: in vivo, Kunming mice; conditions: for Tumor weight: X ± SD, n = 10; for Average weight (g)-after administration: mouse, in vivo
mouse lung cancer Lewis = assay: Activity against mouse grafted lung cancer Lewis; format: in vivo, Kunming mice; conditions: for Inhibition rate (%) / Tumor weight: Lewis; for Tumor weight: X ± SD, n = 10
Method: The experiments were performed according to “Guideline for New Drugs (Western medicines) in Pre-clinical Stages” issued by Bureau of Drug Policy & Administration of the People's Republic of China, and the relevant methods in “Methodology of Pharmaceutical Experiments”, Xu Shuyun et al. ed. 120 male Kunming mice weighting […] were allowed to grow 3 days. No abnormality was observed. The mice were routinely inoculated in oxter with mouse sarcoma S-180, and weighted 4 hrs. after inoculation. The mice were randomly divided into 12 groups, 10 mice/group. Group 1 was given 0.3 ml of physiological saline as negative control; Group 2 was given 5-FU as positive control, 0.6 mg/mouse; Group 3 was given hydroxycamptothecine as positive control, 0.02 mg/mouse. Groups 4, 5 and 6 were injected with 10% Compound 6, 0.4 ml/mouse, 0.2 ml/mouse, and 0.1 ml/mouse, respectively. Groups 7, 8 and 9 were injected with 10% Compound 8, 0.4 ml/mouse, 0.2 ml/mouse, and 0.1 ml/mouse, respectively. Groups 10, 11, and 12 were injected with 10% Compound 20, 0.4 ml/mouse, 0.2 ml/mouse, and 0.1 ml/mouse, respectively. The tested compounds were administered on the next day after inoculation, once a day on alternate days, 6 doses totally administered. On the next day after the end dose, the mice were weighed and sacrificed. After the tumor was excised, body weight and tumor weight were recorded. The tumor inhibition rate was calculated based on the following formula: [(average tumor weight of the control groups−average tumor weight of the experimental groups)/average tumor weight of the control groups]×100%. The data was processed statistically. The above experiments were repeated three times.
The experiments were identical with the experiments for activity against mouse grafted sarcoma S-180, except the following:
(1) the tumor cell line inoculated was mouse lung cancer Lewis;
(2) Compound 6, Compound 8 and Compound 21 were not tested for their activity;
(3) the mice were divided into six groups.

Hepatitis B virus (HBV) = format: cell-based
HepG2 cells = assay: Cell status of HepG2 cells treated with sample (HBV screening); format: cell-based; conditions: 200 μg/ml, HepG2, four days after infection
MDCK (dog kidney) cells = assay: Toxicity TC50 of the samples in MDCK cells (influenza screening); conditions: concentration of 50% toxicity
[7] = U14, first experiment, 10 mg/kg
[8] = U14, first experiment, 20 mg/kg
[9] = U14, first experiment, 40 mg/kg
[10] = U14, second experiment, 10 mg/kg
[11] = U14, second experiment, 20 mg/kg
[12] = U14, second experiment, 40 mg/kg
[13] = U14, third experiment, 10 mg/kg
[14] = U14, third experiment, 20 mg/kg
[15] = U14, third experiment, 40 mg/kg

## CC(C)C1CC23OC1(O)C/C(=C\Nc1ccc(O)cc1)C2CCC3C (stereo not shown) [Compound 5, Curcumol p-hydroxy aniline]
[1]; Homo sapiens, A549, Table 4, read-out: IC50 (ug/ml) against tumor cell lines, A-549
  IC50: 2 µg/mL (≈ 5.82 µM)
[2]; Homo sapiens, Bel-7402, Table 4, read-out: IC50 (ug/ml) against tumor cell lines, Bel-7402
  IC50: 0.9 µg/mL (≈ 2.62 µM)
[3]; Mus musculus, Lewis lung carcinoma, read-out: IC50 (ug/ml) against tumor cell lines, LLC
  IC50: 3.6 µg/mL (≈ 10.5 µM)
[4]; Homo sapiens, SMMC-7721, Table 4, read-out: IC50 (ug/ml) against tumor cell lines, SMMC-7721
  IC50: 4.3 µg/mL (≈ 12.5 µM)
[5]
  inhibitory effect to all the eight selected tumor cell lines (in words): strong inhibitory effect

## CC(C)C1CC23OC1(O)C/C(=C\Nc1ccc(O)cc1)C2CCC3C (stereo not shown) [Compound 6, Curcumol p-hydroxy aniline hydrochloride]
[1]; Table 4, hydrochloride
  IC50 (ug/ml) against tumor cell lines, A-549: 2.1 µg/mL
[2]; Table 4, hydrochloride
  IC50 (ug/ml) against tumor cell lines, Bel-7402: 1.0 µg/mL
[3]; hydrochloride
  IC50 (ug/ml) against tumor cell lines, LLC: 3.8 µg/mL
[4]; Table 4, hydrochloride
  IC50 (ug/ml) against tumor cell lines, SMMC-7721: 4.0 µg/mL
[6]; [7]
  Inhibition rate (%): 37.3%
  Tumor weight: 2.2 ± 0.37 g
[6]; [8]
  Inhibition rate (%): 65.0%
  Tumor weight: 1.23 ± 0.29 g
[6]; [9]
  Inhibition rate (%): 72.6%
  Tumor weight: 0.96 ± 0.31 g
[6]; [10]
  Inhibition rate (%): 32.3%
  Tumor weight: 2.3 ± 0.37 g
[6]; [11]
  Inhibition rate (%): 64.7%
  Tumor weight: 1.20 ± 0.29 g
[6]; [12]
  Inhibition rate (%): 73.5%
  Tumor weight: 0.90 ± 0.31 g
[6]; [13]
  Inhibition rate (%): 35.9%
  Tumor weight: 2.32 ± 0.37 g
[6]; [14]
  Inhibition rate (%): 63.5%
  Tumor weight: 1.32 ± 0.29 g
[6]; [15]
  Inhibition rate (%): 72.1%
  Tumor weight: 1.01 ± 0.31 g
[6]; all the three concentrations, i.v., female mice
  inhibitory effect against mouse grafted uterine cervix cancer U14 (in words): good inhibitory effect
[6]; 10 mg/kg
  Average weight (g)-after administration: 22.1 g
[6]; 20 mg/kg
  Average weight (g)-after administration: 21.6 g
[6]; 40 mg/kg
  Average weight (g)-after administration: 21.6 g
Mouse lung cancer Lewis; first experiment, 10 mg/kg
  Inhibition rate (%): 29.5%
  Tumor weight: 2.10 ± 0.37 g
Mouse lung cancer Lewis; first experiment, 20 mg/kg
  Inhibition rate (%): 42.6%
  Tumor weight: 1.71 ± 0.29 g
Mouse lung cancer Lewis; first experiment, 40 mg/kg
  Inhibition rate (%): 51.7%
  Tumor weight: 1.44 ± 0.31 g
Mouse lung cancer Lewis; second experiment, 10 mg/kg
  Inhibition rate (%): 25.3%
  Tumor weight: 1.80 ± 0.37 g
Mouse lung cancer Lewis; second experiment, 20 mg/kg
  Inhibition rate (%): 44.4%
  Tumor weight: 1.34 ± 0.29 g
Mouse lung cancer Lewis; second experiment, 40 mg/kg
  Inhibition rate (%): 50.6%
  Tumor weight: 1.19 ± 0.31 g
Mouse lung cancer Lewis; third experiment, 10 mg/kg
  Inhibition rate (%): 33.3%
  Tumor weight: 1.80 ± 0.37 g
Mouse lung cancer Lewis; third experiment, 20 mg/kg
  Inhibition rate (%): 47.4%
  Tumor weight: 1.42 ± 0.29 g
Mouse lung cancer Lewis; third experiment, 40 mg/kg
  Inhibition rate (%): 52.6%
  Tumor weight: 1.28 ± 0.31 g
Mouse lung cancer Lewis; first of three concentrations (40 mg/kg)
  inhibitory effect against mouse lung cancer Lewis: 51.6%
Mouse lung cancer Lewis; second of three concentrations (20 mg/kg)
  inhibitory effect against mouse lung cancer Lewis: 44.8%
Mouse lung cancer Lewis; third of three concentrations (10 mg/kg)
  inhibitory effect against mouse lung cancer Lewis: 29.4%
Hepatitis B virus (HBV); 200 μg/ml, decrease of HBeAg relative to positive control
  (Value of the positive control - Measured Value) Value of the positive control × 100%: 93.43%
Hepatitis B virus (HBV); 200 μg/ml, supernatant four days after infection, positive control 1.917, negative 0.057
  OD450 of HBeAg: 0.126
Hepatitis B virus (HBV); primary screening, HBV e antigen, HepG2, 13 samples
  activity against HBV (in words): had the activity against HBV
[5]
  inhibitory effect to all the eight selected tumor cell lines (in words): strong inhibitory effect
HepG2 cells
  Cell status: Normal
MDCK (dog kidney) cells
  TC50: 192.45 µg/mL
